# Entries after “also recorded” stand apart in the source; their conditions may differ.
# What was measured:
# [1] = molecular target: ZIKV NS2B-NS3pro (Zika virus, UniProt A0A024B7W1); assay: Fluorescent peptide; format: biochemical; conditions: read-out: IC50, ZIKV cleavage activity; Fig. 4A
# [2] = system: Fetal human NPCs; format: cell-based
# [3] = system: ZIKV (Asian strain, FSS13025); assay: ZIKV infection of human fetal neural progenitor cells; format: cell-based, Zika virus; conditions: compound up to 100 μM; for Cytotoxicity in hfNPCs (in words): Fig. 7A; for Inhibition of ZIKV infection of hfNPCs (in words): MOI 0.1, 4 days
# [4] = set-up: species or system mice; conditions: mouse, in vivo, ip, 10 mg/kg
# [5] = molecular target: Furin (Homo sapiens, UniProt P09958); assay: Fluorescent peptide; format: biochemical; conditions: read-out: In vitro IC50, Furin; 20 nM enzyme, 20 μM Pyr-RTKR-AMC
# Furin, sequence (P09958 108-794): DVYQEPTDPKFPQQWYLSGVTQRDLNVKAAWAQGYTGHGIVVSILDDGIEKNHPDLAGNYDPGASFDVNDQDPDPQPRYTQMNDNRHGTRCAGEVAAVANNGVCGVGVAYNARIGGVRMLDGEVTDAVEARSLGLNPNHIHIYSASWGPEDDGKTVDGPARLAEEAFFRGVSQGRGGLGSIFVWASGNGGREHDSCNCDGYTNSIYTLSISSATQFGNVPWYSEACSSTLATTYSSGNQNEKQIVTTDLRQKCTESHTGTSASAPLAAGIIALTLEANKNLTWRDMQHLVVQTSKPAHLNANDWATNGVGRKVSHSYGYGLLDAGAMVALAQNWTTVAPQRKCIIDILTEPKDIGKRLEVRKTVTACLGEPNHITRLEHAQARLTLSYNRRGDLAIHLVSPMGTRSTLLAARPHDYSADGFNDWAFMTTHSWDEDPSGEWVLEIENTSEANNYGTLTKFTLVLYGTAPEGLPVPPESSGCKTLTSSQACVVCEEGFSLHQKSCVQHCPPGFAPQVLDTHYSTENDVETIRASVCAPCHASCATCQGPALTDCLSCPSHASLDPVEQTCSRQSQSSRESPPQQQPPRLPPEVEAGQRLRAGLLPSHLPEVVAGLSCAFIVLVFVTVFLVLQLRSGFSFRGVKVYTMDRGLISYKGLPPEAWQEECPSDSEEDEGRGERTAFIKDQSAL
molecule,measurement,setting,value
aprotinin,IC50,[1],~70 nM
Clc1nc2n[nH]nc2nc1Cl [NSC157058],Cytotoxicity (TC50),[2],257.4 µM
same,Cytotoxicity in hfNPCs (in words),[3],without demonstrating significant cytotoxicity; also recorded: without significant cellular toxicity
same,Plasma half-life,[4],~ 20 min
same,IC50,[5],> 100 µM
Clc1ccc(-c2nn3c(COc4cccc(OCc5nnc6sc(-c7ccc(Cl)cc7)nn56)c4)nnc3s2)cc1 [NSC716903],Cytotoxicity (TC50),[2],127.8 µM
same,Inhibition of ZIKV infection of hfNPCs (in words),[3],little or no inhibition
same,Cytotoxicity in hfNPCs (in words),[3],more cytotoxic
same,IC50,[5],> 100 µM
Nc1cc(N)c(N=Nc2ccc(S(=O)(=O)Nc3nccs3)cc2)cc1N=Nc1ccc(S(=O)(=O)Nc2nccs2)cc1 [NSC86314],Cytotoxicity (TC50),[2],212.5 µM
same,Inhibition of ZIKV infection of hfNPCs (in words),[3],little or no inhibition
same,Cytotoxicity in hfNPCs (in words),[3],more cytotoxic
same,IC50,[5],> 100 µM
Clc1ccc(-c2nn3c(COc4cc(Cl)c(OCc5nnc6sc(-c7ccc(Cl)cc7)nn56)cc4Cl)nnc3s2)cc1 [NSC716897],Cytotoxicity (TC50),[2],178.4 µM
same,IC50,[5],> 100 µM
Clc1cc(OCc2nnc3sc(Cc4ccccc4)nn23)c(Cl)cc1OCc1nnc2sc(Cc3ccccc3)nn12 [NSC716898],Cytotoxicity (TC50),[2],235.8 µM
same,IC50,[5],> 100 µM
Fc1cc(C2=Nn3c(COc4ccc(Cl)cc4Cl)nnc3S/C2=C\c2ccc(-c3ccc(Cl)cc3)o2)c(Cl)cc1Cl [NSC719147],Cytotoxicity (TC50),[2],160.3 µM
same,IC50,[5],> 100 µM
CC(=O)C(N=Nc1ccc(S(=O)(=O)Nc2ccccn2)cc1)C(=O)Nc1ccc(Cl)cc1 (stereo not drawn) [NSC134189],Cytotoxicity (TC50),[2],132.3 µM
same,IC50,[5],> 100 µM
